Experimental findings from paper PMC4309560, “Creating Novel Activated Factor XI Inhibitors through Fragment Based Lead Generation and Structure Aided Drug Design” (PLoS ONE, 2015) are described below.

One data set has as its target T1, Human FXIa (Homo sapiens, UniProt P03951).
T1 construct: purchased HTI, Essex Junction, USA
Description: FXIa enzymatic chromogenic assay. It counts as biochemical. The procedure:
(§1) Enzymatic assay. […] Selected compounds were also screened against other serine proteases to evaluate their selectivity profiles.
(§2) Once the compounds were synthesized and characterized, enzymatic assays were performed to evaluate the inhibitory activity of the resulting compounds against FXIa and other serine proteases. […] IC50 values for the compounds were determined using equation: Q= V/(1+([I]/IC50)^n) Q denotes the assay readout, V denotes the uninhibited velocity of the enzyme, [I] denotes the inhibitor concentration, n denotes the slope and IC50 is the inhibitor concentration at V/2.
(§3) [S] denotes the substrate concentration.

The target of another data set is T2, FXIa CD (Homo sapiens, UniProt P03951, C500S/K455A/S452A/T493A).
T2 construct: purification of the catalytic domain (residues 370–607) was carried out as described by Jin et al; made in house
Description: FXIa surface plasmon resonance (Biacore) inhibition in solution assay. Type of data set: binding. From the text: SPR. […] The SPR data were then used to rank and select compounds for X-ray crystallography experiments. The SPR method was based on an inhibition in solution assay in which compound 4, immobilized on the biosensor surface, served as a probe for the FXIa catalytic site. […] Fig. 4 illustrates the design of compound 4 based on the crystal structure of FXIa in complex with compound 1. Since any ligand that binds to the S1 pocket competes with compound 4 for binding to FXIa CD, it is possible to derive the K D for that ligand [60]. The initial binding rate of the protein to compound 4, K on, was used to determine the percentage of free protein in solution which changed by varying the concentration of the competing ligand. The free protein concentration was plotted against the logarithm of the ligand concentration and a sigmoidal dose–response curve-fit model was applied to determine the K D-value.
The tethered free amine ligand 4 was covalently linked to the dextran layer on the CM5 sensor chip (GE Healthcare/Biacore) using the Amine Coupling Kit (Healthcare/Biacore) and performed according to the manufacturer’s recommendations. Carboxyl groups on the dextran layer were activated by injecting a 1:1 mixture of 0.5 M N-ethyl-N’ (3-dimethylaminopropyl)-carbodiimide and 0.5 M N-hydroxysuccinimide at 10 μL/min for 7 min. The activated carboxyl groups on the control channels were blocked by injecting a 1 M ethanolamine solution for 7 min at 10 μL/min. […] The remaining activated groups were blocked with 1 M ethanolamine. Compounds were tested in a concentration response curve. The compounds were serially diluted 1:3 in DMSO to form a 10-point concentration response curve with 5 mM for the highest concentration. The FXIa CD was added to the plate at a final concentration of 50 nM and the mixture was incubated for 15 min at RT. The plate was then sealed and placed in the Biacore 3000 instrument. Samples were injected at 20 μL/min for 2 min. […] The value used to calculate percent inhibition of binding was the slope of the response measured 8 s after the start of the injection. […]
Background: Surface plasmon resonance follows binding to a sensor surface in real time, without labels.

A further data set addresses T3, Human PKK (Homo sapiens, UniProt P03952).
T3 construct: trypsin, plasma kallikrein (PKK), FIXa; purchased Calbiochem, Darmstadt, Germany
Description: PKK (plasma kallikrein) chromogenic assay. It counts as biochemical. Conditions: for Ki: converted from IC50. The protocol: as §1, §2, §3
PKK. Human PKK was from Calbiochem, Darmstadt, Germany.

The nature of data set [1]: Precipitation in FXIa potency measurement. Type of data set: physicochemical.
The subject of the next data set is Caco2 cells. In words: Caco2 permeability. Type of data set: in vitro ADME. The note with it: measured at pH 6.5. The protocol:
A monolayer of Caco2 cells, cultured on semi-permeable polycarbonate surfaces, was used to study the permeability in the apical to basolateral direction. The process was atomized by a robotic Tecan EVO platform (Männerdorf, Switzerland) and 24-transwell plates from Costar (Cambridge, MA, USA). HBSS buffer pH 7.4 was dispensed to the basal side of the monolayer. […] Samples for quantitative analysis by LC/MS/MS were withdrawn before the addition of the test substrate and at 45 and 120 min post addition of the test substrate. During incubation the transwell plates were placed in a shaking incubator at 37°C between sampling. The peak areas were exported to Excel where Papp-values and recoveries were calculated. Twenty-two reference compounds with known human oral bioavailability were used to establish a correlation curve with Papp versus the fraction of the oral dose absorbed (fa).
In general terms: Passage across Caco-2 layers is used to estimate intestinal permeability.

Data set [2] can be described thus: Chromatographic determination of lipophilicity. It counts as physicochemical. The note with it: reversed-phase UPLC, Waters BEH C18 stationary phase, pH 7.4; measured by liquid chromatography, pH7.4. The text has this:
The chromatographic data was obtained utilizing a Waters Aquity UPLC chromatographic system running a gradient from 5–95% acetonitrile at pH7.4. The stationary phase was a Waters BEH C18 2.1x50 mm. Standardized retention data were obtained by normalization against a set of compounds with precisely determined (octanol/water) logD-values. Lipophilicity values for samples were derived from a corresponding calibration curve.

The nature of the next data set: Caco2 efflux. Conditions: human, Caco-2; Caco2, Papp B to A / Papp A to B, pH 7.4 at side A. Type of data set: in vitro ADME. The text has this:
Efflux was studied in the same Caco2 cells with the modification that HBSS buffer pH 7.4 was used on both sides of the monolayer. The permeability was studied in the apical to basolateral direction (Papp AB) as well as in the basolateral to apical direction and (Papp BA). Efflux ratios were derived from the following equation: Papp BA/Papp AB.

The subject of the next data set is rat hepatocytes. Description: Rat hepatocyte metabolic stability assay. It counts as in vitro ADME. The protocol:
Rat hepatocyte metabolic stability was determined in accordance with the method described by Jacobson et al.. Cryo preserved hepatocytes at a concentration of 10^6 viable cells/mL were used. After thawing, hepatocytes were incubated for 10 min to warm to 37°C and test compounds, dissolved in acetonitrile, were added to give a final concentration of 1 μM. At 0.5, 5, 15, 30, 45, 60, 80, 100 and 120 min, the incubation system was mixed and 20 μL aliquots were transferred at each time point to wells in a separate plate filled with 80 μL acetonitrile to stop the reaction. The quenching plate was then vortexed followed by centrifugation, and supernatants were analyzed by LC/MS/MS. Peak areas were determined from extracted ion chromatograms, and the in vitro intrinsic clearance (in vitro CLint, in μL/min/10^6 cells) of parent compound was calculated from the slope in the regression analysis of the natural logarithm of parent concentration vs. time curve.

A short description of a further data set: In vivo rat PK. Conditions: female, Sprague Dawley, plasma. The protocol: Two days prior to dosing, female Sprague Dawley rats were prepared by cannulation of the left carotid artery for blood sampling and by cannulation of the right jugular vein for intravenous administration. The catheters were filled with heparin (100 IU/mL), exteriorized at the nape of the neck and sealed. The surgery was performed under isoflurane (Forene®, Abbott) anesthesia. After surgery the rats were housed individually and had free access to food and water. About 16 h prior to dosing the animals were deprived of food, and fasted until 4 h after dosing. The rats had free access to drinking water during the experiment. On the experiment day, the test item formulation was administered orally by gavage or intravenously in the jugular vein. At pre-defined time points, blood samples of about 0.150 mL were withdrawn from the carotid artery up to 24h after dosing. A total of 10 samples were withdrawn. The blood samples were collected in heparinized plastic tubes and centrifuged, within 30 min, for five min at 10 000 g and +4°C. The plasma was transferred to a 96 well plate and stored at -20°C until analysis by LC/MS/MS. The studies were approved by the Göteborg Animal Research Ethical Board.

SMILES strings stand for the structures. Like-named read-outs stand apart in the source and are kept apart here.

T3 sequence (P03952 391-638 limits assumed): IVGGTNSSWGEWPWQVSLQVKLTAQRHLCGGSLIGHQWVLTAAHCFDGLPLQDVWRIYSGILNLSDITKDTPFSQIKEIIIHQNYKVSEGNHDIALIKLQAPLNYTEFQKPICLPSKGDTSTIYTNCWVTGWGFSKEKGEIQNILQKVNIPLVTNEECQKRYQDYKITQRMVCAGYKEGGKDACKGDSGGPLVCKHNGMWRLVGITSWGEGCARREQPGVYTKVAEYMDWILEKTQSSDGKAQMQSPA
T3 sequence (P03952 20-390 partner limits assumed): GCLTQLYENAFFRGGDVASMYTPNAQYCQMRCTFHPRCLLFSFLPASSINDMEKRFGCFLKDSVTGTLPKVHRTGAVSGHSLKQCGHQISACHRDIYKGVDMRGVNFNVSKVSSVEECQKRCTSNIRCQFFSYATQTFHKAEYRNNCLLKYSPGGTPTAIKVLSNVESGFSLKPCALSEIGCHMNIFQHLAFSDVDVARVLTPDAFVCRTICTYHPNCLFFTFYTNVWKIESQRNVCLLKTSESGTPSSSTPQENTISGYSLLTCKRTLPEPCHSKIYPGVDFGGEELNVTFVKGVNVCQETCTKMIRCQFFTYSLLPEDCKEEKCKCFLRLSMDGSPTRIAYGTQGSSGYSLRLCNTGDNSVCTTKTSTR
T1 sequence (P03951 388-625): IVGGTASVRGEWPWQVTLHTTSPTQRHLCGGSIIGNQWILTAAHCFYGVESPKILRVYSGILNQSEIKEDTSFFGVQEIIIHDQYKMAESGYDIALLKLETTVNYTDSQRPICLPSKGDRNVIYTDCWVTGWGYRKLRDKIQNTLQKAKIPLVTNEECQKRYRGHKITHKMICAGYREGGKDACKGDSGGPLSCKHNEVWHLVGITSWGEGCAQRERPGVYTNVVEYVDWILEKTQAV
T1 sequence (P03951 19-387): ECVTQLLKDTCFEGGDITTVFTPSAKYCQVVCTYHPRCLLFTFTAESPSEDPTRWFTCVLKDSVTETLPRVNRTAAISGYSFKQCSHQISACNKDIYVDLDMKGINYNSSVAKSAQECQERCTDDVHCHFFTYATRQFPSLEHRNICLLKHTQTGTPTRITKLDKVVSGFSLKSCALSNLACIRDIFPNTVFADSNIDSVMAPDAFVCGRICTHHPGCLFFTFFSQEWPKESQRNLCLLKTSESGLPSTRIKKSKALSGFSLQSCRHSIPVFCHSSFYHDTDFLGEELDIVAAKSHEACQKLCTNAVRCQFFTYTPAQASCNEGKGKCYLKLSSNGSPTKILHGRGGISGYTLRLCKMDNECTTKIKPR
T2 sequence (P03951 388-625 S452A/K455A/T493A/C500S): as the sequence (P03951 388-625) above, with S65A, K68A, T106A, C113S counted along it

As a reminder, the IC50 is the concentration at which inhibition is half-maximal. By Ki is commonly meant the equilibrium dissociation constant of an inhibitor or competing ligand from its target. Low readings indicate tighter binding, high ones weaker binding. As a reminder, the Kd is a measure of binding affinity in units of concentration. For `N=C(N)c1ccc2cc(C(=O)Nc3cccc(OCCOCCN)c3)cc(Nc3ncccn3)c2c1` [Compound 4, N-(3-(2-(2-aminoethoxy)ethoxy)phenyl)-6-carbamimidoyl-4-(pyrimidin-2-ylamino)-2-naphthamide, reference compound], at Human FXIa, it took 240 nM to reach half-maximal inhibition (IC50) and the Ki was found to be 120 nM. Moreover, on FXIa CD, the Kd came out at 0.39 µM.

What is called pKa is the negative logarithm of the acid dissociation constant. Read a low pKa as a group that gives up its proton readily. `Nc1ccc2c(CNC(=O)[C@H](Cc3ccccc3)NC(=O)c3ccc4[nH]c(=O)cc(O)c4c3)cccc2n1` [Compound 8, (S)-N-(1-{(2-Aminoquinolin-5-yl)methylamino}-1-oxo-3-phenylpropan-2-yl)-4-hydroxy-2-oxo-1,2-dihydroquinoline-6-carboxamide]: the pKa in “Experimental pKa” stood at 7.1. At Human FXIa, this molecule registered a concentration for half-maximal inhibition (IC50) of 120 nM and a Ki of 60 nM. In addition, on Human PKK, the IC50 came out at 7.2 µM and the Ki amounted to 1500 nM. The “selectivity vs. PKK” value at Human PKK (FXIa over PKK, for 13 based on Ki values) is on record as “about 25 fold”.

`Cc1cc(=O)[nH]c2ccc(Cl)cc12` [Compound 12]: in [1], the “Precipitates at higher concentration than” value is over 111 µM. The inhibition at 111 µM at Human FXIa (read-out: FXIa % inh. at 111 μM) came out at 43%.

Consider `CNC(=O)[C@H](Cc1ccccc1)NC(=O)c1ccc2[nH]c(=O)cc(O)c2c1` [Compound 15, (S)-4-Hydroxy-N-(1-(methylamino)-1-oxo-3-phenylpropan-2-yl)-2-oxo-1,2-dihydroquinoline-6-carboxamide], for which the “ligand efficiency (LE)” value at Human FXIa (FXIa) is 0.15. Also, the “-ΔG fragment (printed with reversed sign in the ΔG link equation)” value at Human FXIa (FXIa, subtracted term, so ΔG itself is negative) was determined as 16.3 kJ/mol. The Kd at FXIa CD (read-out: FXIa KD) was 1400 µM.

As usually defined, the chromatographic logD is lipophilicity estimated from chromatographic retention. High values mean higher lipophilicity, low ones lower lipophilicity. The efflux ratio is a quotient of directional permeabilities that is used to spot active efflux. Regarding `CN(Cc1cc(=O)[nH]c2ccc(Cl)cc12)C(=O)[C@H](Cc1ccccc1)NC(=O)c1ccc2[nH]c(=O)cc(O)c2c1` [Compound 25, (S)-N-(1-[{(6-Chloro-2-oxo-1,2-dihydroquinolin-4-yl)methyl}(methyl)amino]-1-oxo-3-phenylpropan-2-yl)-4-hydroxy-2-oxo-1,2-dihydroquinoline-6-carboxamide], the “Caco2 A to B permeability” value in the data set on Caco2 cells is listed as 0.28 1·10^-6 cm/s. Besides, the chromatographic logD in data set [2] turned out to be 1.3. Besides, the efflux ratio in “Caco2 efflux” worked out at 5.2. Further, the IC50 on Human FXIa is under 5 nM. The inhibition at 0.005 µM on Human FXIa (read-out: FXIa % inh. at 5 nM) was found to be 85%. Also, the “Rat CLint” value in the data set on rat hepatocytes is listed as 10 μL/min/ 1·10^6 cells.

Consider `CN(Cc1cc(=O)[nH]c2ccc(Cl)cc12)C(=O)[C@H](Cc1ccccc1)N(C)C(=O)c1ccc2[nH]c(=O)cc(O)c2c1` [Compound 26, (S)-N-(1-[{(6-Chloro-2-oxo-1,2-dihydroquinolin-4-yl)methyl}(methyl)amino]-1-oxo-3-phenylpropan-2-yl)-4-hydroxy-N-methyl-2-oxo-1,2-dihydroquinoline-6-carboxamide], for which the “Caco2 A to B permeability” value with Caco2 cells is recorded as 0.16 1·10^-6 cm/s. For the same molecule, the chromatographic logD in [2] came out at 1.4. The efflux ratio in the data set “Caco2 efflux” is over 3.8. On Human FXIa, this molecule showed a half-maximal inhibitory concentration (IC50) of 1700 nM and an inhibition constant Ki of 850 nM. For the same molecule, the “Rat CLint” value in the data set on rat hepatocytes amounted to 23 μL/min/ 1·10^6 cells.

One may read the clearance as a measure of how efficiently the substance is removed, as volume per time. What is called bioavailability is the share of a dose that reaches the circulation, judged against a reference dose that is usually intravenous. In the case of `Cc1c(-c2ccccc2)n[nH]c1C(=O)N(C)Cc1cc(=O)[nH]c2ccc(Cl)cc12` [Compound 28, N-{(6-Chloro-2-oxo-1,2-dihydroquinolin-4-yl)methyl}-N,4-dimethyl-3-phenyl-1H-pyrazole-5-carboxamide], the “Caco2 A to B permeability” value in the data set on Caco2 cells was 19 1·10^-6 cm/s. This molecule also returned a chromatographic logD in [2] of 2.7. For the same molecule, in the data set “Caco2 efflux”, the efflux ratio came to 1.6. For the same molecule, the values for the IC50 on Human FXIa and at Human PKK were 820 nM and 8.4 µM, respectively. Further, the Ki at Human FXIa worked out at 410 nM; on Human PKK, 1700 nM. In “In vivo rat PK” (intravenous, rat in vivo, read-out: Rat CL (in vivo clearance)), the clearance came to 18 mL/min/kg. The molecule also returned a bioavailability in “In vivo rat PK” (rat, oral) of 27%. In addition, the “Rat CLint” value in the data set with rat hepatocytes was found to be 21 μL/min/ 1·10^6 cells.
